Test results: US11076594B2, “Pyrazolone compound or salt thereof, preparation method therefor, herbicide composition and use thereof” (QINGDAO KINGAGROOT CHEMICAL COMPOUNDS CO., LTD., priority 2015, dated 2021)

Legend:
Assay type in all cases: in vivo
foxtail = assay: weed control effect in post-emergence stage (Table 1); design: key: Level 10: completely dead; Level 9: above 95% growth control rate; Level 8: above 90% growth control rate; Level 7: above 80% growth control rate; Level 6: above 70% growth control rate; Level 5: above 60% growth control rate; Level 4: above 50% growth control rate; Level 3: above 20% growth control rate; Level 2: 5%-20% growth control rate; Level 1: below 5% growth control rate; details: post-emergence spray at 4-5 leaf stage, 250 g/ha active ingredient with 450 kg/ha water, rated after 3 weeks in greenhouse
In short: (§1)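 Weed and crop seeds sown in soil-filled pots under 0.5-2 cm soil, greenhouse-grown, then sprayed at 4-5 leaf stage (2-3 weeks after sowing) with compound in acetone/Tween 80/water. Fresh weight growth control rate assessed after 3 weeks in greenhouse.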

rorippa indica = assay: as above; design: key: Level 10: completely dead; Level 9: above 95% growth control rate; Level 8: above 90% growth control rate; Level 7: above 80% growth control rate; Level 6: above 70% growth control rate; Level 5: above 60% growth control rate; Level 4: above 50% growth control rate; Level 3: above 20% growth control rate; Level 2: 5%-20% growth control rate; Level 1: below 5% growth control rate; details: post-emergence spray at 4-5 leaf stage, 250 g/ha active ingredient with 450 kg/ha water, rated after 3 weeks in greenhouse
In short: as §1

echinochloa = assay: as above; design: key: Level 10: completely dead; Level 9: above 95% growth control rate; Level 8: above 90% growth control rate; Level 7: above 80% growth control rate; Level 6: above 70% growth control rate; Level 5: above 60% growth control rate; Level 4: above 50% growth control rate; Level 3: above 20% growth control rate; Level 2: 5%-20% growth control rate; Level 1: below 5% growth control rate; details: post-emergence spray at 4-5 leaf stage, 250 g/ha active ingredient with 450 kg/ha water, rated after 3 weeks in greenhouse
In short: as §1

bidens bipinnata = assay: as above; design: key: Level 10: completely dead; Level 9: above 95% growth control rate; Level 8: above 90% growth control rate; Level 7: above 80% growth control rate; Level 6: above 70% growth control rate; Level 5: above 60% growth control rate; Level 4: above 50% growth control rate; Level 3: above 20% growth control rate; Level 2: 5%-20% growth control rate; Level 1: below 5% growth control rate; details: post-emergence spray at 4-5 leaf stage, 250 g/ha active ingredient with 450 kg/ha water, rated after 3 weeks in greenhouse
In short: as §1

Indian mallow = assay: as above; design: key: Level 10: completely dead; Level 9: above 95% growth control rate; Level 8: above 90% growth control rate; Level 7: above 80% growth control rate; Level 6: above 70% growth control rate; Level 5: above 60% growth control rate; Level 4: above 50% growth control rate; Level 3: above 20% growth control rate; Level 2: 5%-20% growth control rate; Level 1: below 5% growth control rate; details: post-emergence spray at 4-5 leaf stage, 250 g/ha active ingredient with 450 kg/ha water, rated after 3 weeks in greenhouse
In short: as §1

crab grass = assay: as above; design: key: Level 10: completely dead; Level 9: above 95% growth control rate; Level 8: above 90% growth control rate; Level 7: above 80% growth control rate; Level 6: above 70% growth control rate; Level 5: above 60% growth control rate; Level 4: above 50% growth control rate; Level 3: above 20% growth control rate; Level 2: 5%-20% growth control rate; Level 1: below 5% growth control rate; details: post-emergence spray at 4-5 leaf stage, 250 g/ha active ingredient with 450 kg/ha water, rated after 3 weeks in greenhouse
In short: as §1

wheat [1] = assay: wheat field test, crop selectivity, greenhouse spray at 4 leaf stage; details: 250 g/ha of the active substance; 4 weeks after treatment
In short: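 After sowing in pots under 0.5-2 cm soil, plants grow to the 4 leaf stage and receive a spray of compound formulated in acetone, methyl oleate emulsion and water. Four weeks later in the greenhouse, the fresh weight control rate gives the growth control rate.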

chickweed = assay: wheat field resistant broadleaf weed control, greenhouse spray at 4 leaf stage; design: key: Level 10: completely dead; Level 9: above 95% growth control rate; Level 8: above 90% growth control rate; Level 7: above 80% growth control rate; Level 6: above 70% growth control rate; Level 5: above 60% growth control rate; Level 4: above 50% growth control rate; Level 3: above 20% growth control rate; Level 2: 5%-20% growth control rate; Level 1: below 5% growth control rate; details: 250 g/ha of the active substance; 4 weeks after treatment; ALS inhibitor resistant
Experimental: (§2) The activity level standard of harmful plant destruction (i.e. growth control rate) is as follows:
(§3) The above described growth control rate is fresh weight control rate.
(§4) The seeds of alopecurus japonicas, flixweed, shepherd's purse, corn gromwell, chickweed, beckmannia syzigachne, and annual ryegrass and wheat seeds were put into a plastic pot loaded with soil, and then covered with 0.5-2 cm soil, the seeds were allowed to grow in good greenhouse environment. The test plants were treated at 4 leaf stage 2-3 weeks after sowing. The test compounds of the present invention were dissolved in acetone respectively, then added with methyl oleate emulsion and diluted by certain amount of water to certain concentration. The solution was sprayed to the plant with a sprayer. Then the plants were cultured for 4 weeks in greenhouse.

corn gromwell = assay: as above; design: key: Level 10: completely dead; Level 9: above 95% growth control rate; Level 8: above 90% growth control rate; Level 7: above 80% growth control rate; Level 6: above 70% growth control rate; Level 5: above 60% growth control rate; Level 4: above 50% growth control rate; Level 3: above 20% growth control rate; Level 2: 5%-20% growth control rate; Level 1: below 5% growth control rate; details: 250 g/ha of the active substance; 4 weeks after treatment; ALS inhibitor resistant
Experimental: as §2, §3, §4

flixweed = assay: as above; design: key: Level 10: completely dead; Level 9: above 95% growth control rate; Level 8: above 90% growth control rate; Level 7: above 80% growth control rate; Level 6: above 70% growth control rate; Level 5: above 60% growth control rate; Level 4: above 50% growth control rate; Level 3: above 20% growth control rate; Level 2: 5%-20% growth control rate; Level 1: below 5% growth control rate; details: 250 g/ha of the active substance; 4 weeks after treatment; ALS inhibitor resistant
Experimental: as §2, §3, §4

shepherd's purse = assay: as above; design: key: Level 10: completely dead; Level 9: above 95% growth control rate; Level 8: above 90% growth control rate; Level 7: above 80% growth control rate; Level 6: above 70% growth control rate; Level 5: above 60% growth control rate; Level 4: above 50% growth control rate; Level 3: above 20% growth control rate; Level 2: 5%-20% growth control rate; Level 1: below 5% growth control rate; details: 250 g/ha of the active substance; 4 weeks after treatment; ALS inhibitor resistant
Experimental: as §2, §3, §4

rice = assay: post-emergence stage experiment, crop (Table 1); details: post-emergence spray at 4-5 leaf stage, 250 g/ha active ingredient with 450 kg/ha water, rated after 3 weeks in greenhouse
In short: as §1

wheat [2] = assay: post-emergence stage experiment, crop (Table 1); details: post-emergence spray at 4-5 leaf stage, 250 g/ha active ingredient with 450 kg/ha water, rated after 3 weeks in greenhouse
In short: as §1

corn = assay: post-emergence stage experiment, crop (Table 1); details: post-emergence spray at 4-5 leaf stage, 250 g/ha active ingredient with 450 kg/ha water, rated after 3 weeks in greenhouse
In short: as §1

Row | Structure (SMILES) | effect on crop, Wheat (level) (wheat [2]) | weed control effect, Green foxtail (level) (foxtail) | weed control effect, Rorippa indica (level) (rorippa indica) | weed control effect, Echinochloa (level) (echinochloa) | weed control effect, Bidens bipinnata (level) (bidens bipinnata) | weed control effect, Indian mallow (level) (Indian mallow) | weed control effect, Crab grass (level) (crab grass) | Wheat (activity level, crop damage) (wheat [1]) | chickweed weed controlling effect (activity level) (chickweed) | corn gromwell weed controlling effect (activity level) (corn gromwell) | flixweed weed controlling effect (activity level) (flixweed) | shepherd's purse weed controlling effect (activity level) (shepherd's purse) | effect on crop, Rice (level) (rice) | effect on crop, Corn (level) (corn)
1 | CCOc1c(C(=O)Oc2c(C(=O)c3ccc(C(F)(F)F)c(N4CCCCCC4=O)c3Cl)c(C)nn2C)cnn1C [Compound 056] | 0 | 1 (Level 1: below 5% growth control rate) | 10 | 5 (Level 5: above 60% growth control rate) | 5 (Level 5: above 60% growth control rate) | 10 | 3 (Level 3: above 20% growth control rate) | 0 | 10 | 10 | 10 | 10 | 3 (Level 3: above 20% growth control rate) | 0
2 | Cc1nn(C)cc1C(=O)Oc1c(C(=O)c2ccc(C(F)(F)F)c(N3CCCCCC3=O)c2Cl)c(C)nn1C [Compound 058] | 0 | 1 (Level 1: below 5% growth control rate) | 10 | 4 (Level 4: above 50% growth control rate) | 4 (Level 4: above 50% growth control rate) | 10 | 1 (Level 1: below 5% growth control rate) | 0 | 10 | 10 | 10 | 10 | 2 (Level 2: 5%-20% growth control rate) | 1 (Level 1: below 5% growth control rate)

Continued, in another order:

Row | effect on crop, Wheat (level) (wheat [2]) | Structure (SMILES) | weed control effect, Green foxtail (level) (foxtail) | weed control effect, Rorippa indica (level) (rorippa indica) | weed control effect, Echinochloa (level) (echinochloa) | weed control effect, Bidens bipinnata (level) (bidens bipinnata) | weed control effect, Indian mallow (level) (Indian mallow) | weed control effect, Crab grass (level) (crab grass) | Wheat (activity level, crop damage) (wheat [1]) | chickweed weed controlling effect (activity level) (chickweed) | corn gromwell weed controlling effect (activity level) (corn gromwell) | flixweed weed controlling effect (activity level) (flixweed) | shepherd's purse weed controlling effect (activity level) (shepherd's purse) | effect on crop, Rice (level) (rice) | effect on crop, Corn (level) (corn)
3 | 0 | CCOc1c(C(=O)Oc2c(C(=O)c3ccc(C(F)(F)F)c(N4CCCCCC4=O)c3Cl)c(C3CC3)nn2C)cnn1C [Compound 060] | 1 (Level 1: below 5% growth control rate) | 10 | 5 (Level 5: above 60% growth control rate) | 7 (Level 7: above 80% growth control rate) | 10 | 3 (Level 3: above 20% growth control rate) | 0 | 10 | 10 | 10 | 10 | 1 (Level 1: below 5% growth control rate) | 0
4 | 0 | Cn1cc(C(=O)Oc2c(C(=O)c3ccc(C(F)(F)F)c(N4CCCCCC4=O)c3Cl)c(C3CC3)nn2C)cn1 [Compound 061] | 1 (Level 1: below 5% growth control rate) | 10 | 5 (Level 5: above 60% growth control rate) | 7 (Level 7: above 80% growth control rate) | 10 | 4 (Level 4: above 50% growth control rate) | 0 | 10 | 10 | 10 | 10 | 1 (Level 1: below 5% growth control rate) | 1 (Level 1: below 5% growth control rate)
5 | 0 | Cc1cnn(-c2c(C(F)(F)F)ccc(C(=O)c3cnn(C)c3OC(=O)c3cn(C)nc3C)c2Cl)c1 [Compound 082] | 10 | 10 | 10 | 4 (Level 4: above 50% growth control rate) | 9 (Level 9: above 95% growth control rate) | 6 (Level 6: above 70% growth control rate) | 0 | 10 | 10 | 10 | 10 | 3 (Level 3: above 20% growth control rate) | 3 (Level 3: above 20% growth control rate)
